In PubChem BioAssay (NCI):
Values joined by “and” are separate entries in the source; they are usually repeats but may differ in a detail not shown here. Equal entries are not always repeated.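 Cells were grown in 96-well plates and exposed to each compound for 48 hours at five concentrations; endpoints were interpolated linearly between bracketing concentrations, or set to the highest concentration if not reached. Abbreviation: GI50, concentration required for 50% inhibition of growth. TGI: concentration producing complete growth inhibition.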

Legend:
Assay in all cases: NCI-60 cell line screen, 48 h
[1] = system: U251 CNS
[2] = system: HCT-15 colon
[3] = system: MOLT-4 leukemia
[4] = system: HT29 colon
[5] = system: SW-620 colon
[6] = system: OVCAR-5 ovarian
[7] = system: SR leukemia
[8] = system: MALME-3M melanoma
[9] = system: 786-0 renal
[10] = system: HCT-116 colon

| Structure (SMILES) | GI50 [1] | TGI [1] | GI50 [2] | TGI [2] | GI50 [3] | TGI [3] | GI50 [4] | TGI [4] | GI50 [5] | TGI [5] | GI50 [6] | TGI [6] | GI50 [7] | TGI [7] | GI50 [8] | TGI [8] | GI50 [9] | TGI [9] | GI50 [10] | TGI [10] |
| --- | --- | --- | --- | --- | --- | --- | --- | --- | --- | --- | --- | --- | --- | --- | --- | --- | --- | --- | --- | --- |
| CC[C@H](CC#N)OC(=O)N[C@@H](C)c1cccc(NC(=O)Nc2ccc(-c3cnco3)c(OC)c2)c1 | 0.0406 µM | 44.8 µM | 0.119 µM | > 51.4 µM | 0.0403 µM | 13.8 µM | < 0.0199 µM | 21.7 µM | 0.0229 µM | 40.6 µM | 0.623 µM | > 84.5 µM | 0.0289 µM | 4.3 µM | 0.161 µM | 31.2 µM | 0.188 µM | > 93 µM | 0.026 µM | > 45.8 µM |
| O=C1C(Cl)=C(Nc2cccc(O)c2)C(=O)N1c1cc(Cl)c(Cl)cc1Cl | 13.7 µM | 27.3 µM | 15.1 µM | 30.1 µM | 12.7 µM | 37.2 µM | 18 µM | 40 µM | 15.2 µM | 28.9 µM | 24.2 µM | 48.2 µM | 10.3 µM | 59.7 µM | 7.29 µM | 23.4 µM | 16.7 µM | 32.7 µM | 15.8 µM | 30.2 µM |
| Oc1ccc(CCCCCCc2ccc(O)cc2)cc1 | 5.61 µM | 19.8 µM | 12.3 µM | 26.6 µM | 0.566 µM | 27.9 µM | 17 µM | 34.5 µM | 7.29 µM | 20.5 µM | 16.9 µM | 31.4 µM | 6.15 µM | > 100 µM | 13.3 µM | 29.6 µM | 3.65 µM | 15.1 µM | 9.68 µM | 22.5 µM |
| CC(=O)Nc1ccc2c(c1)oc(=O)c1cc(NC(C)=O)ccc12 | > 100 µM | > 100 µM | > 100 µM | > 100 µM | 18.9 µM | > 100 µM | 54 µM | > 100 µM | > 100 µM | > 100 µM | > 100 µM | > 100 µM | 8.52 µM | 77.4 µM | 35.6 µM | > 100 µM | > 100 µM | > 100 µM | 80.8 µM | > 100 µM |
| O=C1/C(=C/c2ccc(O)cc2)COc2ccc(-c3ccccc3)cc21 | 5.1 µM | 17.8 µM | 2.89 µM | 12.4 µM | 1.62 µM | > 32.5 µM | 3.35 µM | 11.5 µM | 2.8 µM | 8.06 µM | 17.8 µM | 33.8 µM | 1.63 µM | > 28.4 µM | 8.38 µM | 30.6 µM | 12 µM | 32.3 µM | 3.38 µM | 14.4 µM |
| CCN(Cc1ccccc1OC)c1ccc(CO)c(Cl)c1 | 1.38 µM | 14.8 µM | 7.11 µM | 23.6 µM | 18.1 µM | 46.2 µM | 4.7 µM | 18 µM | 2.33 µM | 17.5 µM | 0.123 µM | 0.416 µM | 8.53 µM | 40.9 µM | 12.9 µM | 27.5 µM | 13 µM | 26.2 µM | 0.215 µM | 8.77 µM |
| OCc1ccc(-c2nn(Cc3ccccc3)c3ccccc23)o1 | 8.07 µM and 12.4 µM | 28.5 µM and > 47.6 µM | 17.4 µM and 20.1 µM | 49.2 µM and 41.4 µM |  | 62.2 µM and 37.4 µM | 15 µM and 32.8 µM | 32.2 µM and > 100 µM | 13.3 µM and 12.3 µM | 51.9 µM and 32.8 µM | 0.564 µM and 0.0852 µM |  | 12 µM and 4.48 µM | 45.2 µM and 39.6 µM | 24.3 µM and 21.1 µM | 76.3 µM and 55.5 µM | 24 µM and 4.69 µM | > 81.6 µM | 1.65 µM and 8.72 µM | 20 µM and 22.7 µM |
| CC(C)(C)c1ccc(S(=O)(=O)N[C@H]2CC[C@H]3[C@@H]4CCc5cc(OS(=O)(=O)O)ccc5[C@H]4CC[C@]23C)cc1 | 1.68 µM | 3.34 µM | 1.79 µM | 3.59 µM | 2.65 µM | 9.55 µM | 2.19 µM | 4.57 µM | 3.37 µM | 12.5 µM | 1.88 µM | 3.63 µM | 2.45 µM | 7.02 µM | 2.49 µM | 6.05 µM | 2.5 µM | 6.3 µM | 1.79 µM | 3.35 µM |
| CC(CNC(Cc1ccccc1)c1ccccc1)NC(Cc1ccccc1)c1ccccc1 (stereo not drawn) | 2.59 µM | 7.37 µM | 2 µM | 4.87 µM | 2.06 µM | 6.03 µM | 1.97 µM | 4.04 µM | 2.75 µM | 8.53 µM | 2.73 µM | 8.76 µM | 1.84 µM | 4.49 µM | 1.68 µM | 3.36 µM | 1.67 µM | 3.36 µM | 1.37 µM | 2.86 µM |
| CC(=O)NC1=C(C)C(=O)c2c(nc3n2CCC3O)C1=N (stereo not drawn) |  | 26.9 µM |  | 41.1 µM |  | > 100 µM |  | 33.5 µM |  | 26.4 µM |  | 36.6 µM |  | > 100 µM |  | 18.8 µM |  | 40.4 µM |  | 6.88 µM |
| CCCCCCCCCCCCCCCC(=O)OCC1OC(n2c(O)c(N=NC(N)=S)c3ccc([N+](=O)[O-])cc32)C(OC(C)=O)C1OC(C)=O (stereo not drawn) |  | > 100 µM |  | > 100 µM |  | > 100 µM |  | > 100 µM |  | > 100 µM |  | > 100 µM |  | > 100 µM |  | > 100 µM |  | > 100 µM |  | > 100 µM |
| Cc1nc2sc(C(=O)Nc3ccccc3)c(N)c2cc1C(=O)/C=C/c1ccccc1 | 1.71 µM | 3.16 µM | 1.57 µM | 3.63 µM | 2.91 µM | 76.1 µM | 1.77 µM | 3.95 µM | 1.74 µM | 4.49 µM | 2.31 µM | 7.13 µM | 1.38 µM | 11.7 µM | 2.35 µM | 7.71 µM | 1.51 µM | 3.01 µM | 1.46 µM | 2.97 µM |
| COc1ccc2c(c1)OC(N(C(C)=O)C(C)=O)=C(C#N)C2c1ccc(F)cc1 (stereo not drawn) | 1.82 µM | 54.8 µM | 0.683 µM | > 100 µM | 2.66 µM | > 100 µM | 2.55 µM | 18 µM | 0.553 µM | > 100 µM | 7.65 µM | > 100 µM | 0.653 µM | > 100 µM | 21.6 µM | > 100 µM | 3.52 µM | > 100 µM | 1.26 µM | > 100 µM |
